Experimental data: paper PMC6471427, “Halogen-Substituted Triazolethioacetamides as a Potent Skeleton for the Development of Metallo-β-Lactamase Inhibitors” (Molecules, 2019)
Like-named read-outs stand apart in the source and are kept apart here.

Assays:
[1] = molecular target: MβLs; set-up: method as in PMID 11564740; details: broad spectrum MβLs inhibitor; read-out: Ki against MβLs; cited from earlier work
[2] = molecular target: T1, NDM-1 (Klebsiella pneumoniae, UniProt C7C422); assay: Inhibition of NDM-1 with cefazolin as substrate (UV-vis kinetics); format: biochemical; details: read-out: IC50 against NDM-1
T1 construct: made in house
Text: (§1) To test whether these halogen-substituted triazolethioacetamides were inhibitors of the MβLs, three subclasses MβLs B1(VIM-2 and NDM-1), B2 (ImiS), and B3 (L1) were expressed and purified as previously described. […] On the whole, triazolethioacetamides containing chlorine (1–8) increase the inhibitory potency slightly on average compared to those containing fluorine (9–12), but the presence of trifluoromethoxy (13) is beneficial to increase the inhibitory activity. […] Furthermore, replacement of two hydrogen at the anilino group with chlorine (4 and 5) or fluorine (12) relatively reduces the inhibitory activity, especially compound 12 with two fluorine at 2,5-position of anilino group.
(§2) The inhibition studies were carried out on an Agilent UV 8453 spectrophotometer at 25 °C using cefazolin as substrate of […], NDM-1, and L1 and imipenem as substrate of ImiS. Inhibitors 1–13 were dissolved in DMSO and then diluted with Tris-HCl, pH 7.0. The substrate concentrations were varied between 25 and 400 μM, and inhibitor concentrations were varied between 125 nM and 1 mΜ. The enzyme and inhibitor were pre-incubated for 30 min before starting the kinetic experiments. The IC50 values for all analyzed compounds were calculated based on the kinetic data. The mode of inhibition was determined by generating Lineweaver-Burk plots of the data, and the Ki was determined by replotting the data for slope and intercept versus […].

[3] = molecular target: T2, ImiS (Aeromonas veronii, UniProt O31272); assay: Inhibition of ImiS-catalysed hydrolysis of imipenem (UV-vis kinetics; IC50, Ki, mode); format: biochemical; details: for Inhibition mode against ImiS: Lineweaver-Burk plots
T2 construct: made in house
Text: as §1, §2

[4] = molecular target: T3, VIM-2 (Escherichia coli, UniProt Q5U7L7); assay: Inhibition of VIM-2 (UV-vis kinetics); format: biochemical; details: 25 °C, Tris-HCl pH 7.0, 30 min pre-incubation; read-out: IC50 against VIM-2
T3 construct: made in house
Text: as §1, §2

[5] = 25 °C, Tris-HCl pH 7.0, 30 min pre-incubation

T2 sequence (O31272 28-255): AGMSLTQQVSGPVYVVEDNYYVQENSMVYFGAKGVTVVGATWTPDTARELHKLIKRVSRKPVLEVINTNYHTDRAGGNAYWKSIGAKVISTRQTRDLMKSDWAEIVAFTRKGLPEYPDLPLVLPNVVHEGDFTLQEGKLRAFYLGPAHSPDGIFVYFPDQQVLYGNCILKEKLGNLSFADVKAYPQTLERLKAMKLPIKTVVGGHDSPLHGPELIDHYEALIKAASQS
T1 sequence (C7C422 29-270, looked up, species assumed): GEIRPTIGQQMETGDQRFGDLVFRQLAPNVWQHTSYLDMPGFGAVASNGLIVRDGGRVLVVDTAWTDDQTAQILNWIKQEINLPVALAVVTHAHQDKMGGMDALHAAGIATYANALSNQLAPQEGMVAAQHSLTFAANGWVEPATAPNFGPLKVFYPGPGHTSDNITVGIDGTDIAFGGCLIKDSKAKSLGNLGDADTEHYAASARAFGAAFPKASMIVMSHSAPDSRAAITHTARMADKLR

Row | SMILES | Ki [1] | IC50 [2, 5] | IC50 [3] | IC50 [4] | IC50 ([2]; value in nM) | Ki [3] | Inhibition mode against ImiS ([3]; imipenem as substrate) | Inhibitory activity against ImiS (in words) ([3]; imipenem as substrate)
1 | O=C(O)C(S)c1ccccc1 (single isomer, unassigned) [S-isomer, thiomandelic acid] | 1.28 µM |  |  |  |  |  |  | 
2 | O=C(CSc1nnc(-c2ccccc2O)[nH]1)Nc1ccccc1Cl [Compound 1] |  | 960 ± 70 nM | 0.032 µM | > 1000 µM |  |  |  | 
3 | O=C(CSc1nnc(-c2ccccc2O)[nH]1)Nc1cccc(Cl)c1 [Compound 2] |  | 170 ± 20 nM | 0.045 ± 0.002 µM | > 1000 µM | 170 nM |  |  | 
4 | O=C(CSc1nnc(-c2ccccc2O)[nH]1)Nc1ccc(Cl)cc1 [Compound 3] |  | 370 ± 50 nM | 0.051 ± 0.006 µM | > 1000 µM |  |  |  | 
5 | O=C(CSc1nnc(-c2ccccc2O)[nH]1)Nc1ccc(Cl)c(Cl)c1 [Compound 4] |  | > 1e+06 nM | 0.27 ± 0.02 µM | > 1000 µM |  |  |  | 
6 | O=C(CSc1nnc(-c2ccccc2O)[nH]1)Nc1ccc(Cl)cc1Cl [Compound 5] |  | > 1e+06 nM | 0.16 ± 0.03 µM | > 1000 µM |  |  |  | 
7 | O=C(CSc1nnc(-c2ccccc2O)[nH]1)Nc1ccc(Cl)cc1[N+](=O)[O-] [Compound 6] |  | > 1e+06 nM | 0.78 ± 0.08 µM | > 1000 µM |  |  |  | 
8 | O=C(CSc1nnc(-c2ccccc2O)[nH]1)Nc1cc(Cl)ccc1[N+](=O)[O-] [Compound 7] |  | > 1e+06 nM | 0.2 ± 0.04 µM | > 1000 µM |  |  |  | 
9 | O=C(CSc1nnc(-c2ccccc2O)[nH]1)Nc1ccc([N+](=O)[O-])cc1Cl [Compound 8] |  | > 1e+06 nM | 0.26 ± 0.03 µM | > 1000 µM |  |  |  | 
10 | O=C(CSc1nnc(-c2ccccc2O)[nH]1)Nc1ccccc1F [Compound 9] |  | > 1e+06 nM | 0.072 ± 0.005 µM | > 1000 µM |  | 0.074 µM | mixed inhibitors | 
11 | O=C(CSc1nnc(-c2ccccc2O)[nH]1)Nc1cccc(F)c1 [Compound 10] |  | > 1e+06 nM | 0.98 ± 0.04 µM | > 1000 µM |  |  |  | 
12 | O=C(CSc1nnc(-c2ccccc2O)[nH]1)Nc1ccc(F)cc1 [Compound 11] |  | > 1e+06 nM | > 50 µM | > 1000 µM |  |  |  | nearly had no inhibitory activity
13 | O=C(CSc1nnc(-c2ccccc2O)[nH]1)Nc1c(F)cccc1F [Compound 12] |  | > 1e+06 nM | 15.6 ± 3 µM | 38.9 ± 5 µM |  |  |  | 
14 | O=C(CSc1nnc(-c2ccccc2O)[nH]1)Nc1ccc(OC(F)(F)F)cc1 [Compound 13] |  | > 1e+06 nM | 0.23 ± 0.09 µM | 2.8 ± 0.3 µM |  | 0.27 µM | mixed inhibitors | 
15 | O=C(O)C(S)c1ccccc1 (centres unmarked) [rthiomandelic acid, thiomandelic acid] | 0.09 µM |  |  |  |  |  |  | 
